Source: US8063049B2, “Inhibitors of MEK” (Ardea Biosciences, Inc., priority 2007, dated 2011)

How the values were obtained:
[1] = test system: phosphorylated ERK in MDA-MB-231 breast cancer cells; assay: Western blotting for phosphorylated ERK in EGF-stimulated MDA-MB-231 cells; format: cell-based; conditions: Homo sapiens, 30 min compound, 100 ng/ml EGF for 5 min, phospho-ERK Western blot
Description: Effects of compounds in the cell can be determined by Western blotting for phosphorylated ERK. MDA-MB-231 breast cancer cells are plated in a 48 well plate at 20,000 cells per well and are grown in a 37° humidified CO2 incubator. The following day, the growth media (DMEM+10% fetal bovine serum) is removed and replaced with starve media (DMEM+0.1% fetal bovine serum). Cells are incubated in the starve media for sixteen hours and then treated with a range of compound concentrations for thirty minutes.
After incubation with compound, cells are stimulated with 100 ng/ml EGF for five minutes. The cells are then lysed and analyzed by Western blot using a monoclonal antibody raised to phosphorylated ERK. The signal is amplified using a secondary antibody conjugated to a near-IR dye and detected on a Licor Odyssey scanner.

[2] = molecular target: T1, Human GST-MEK1CA (constitutively active MEK1, Ser218Asp and Ser222Asp) (Homo sapiens, UniProt Q02750, S218D/S222D); assay: MEK1 enzymatic activity assay (33P incorporation, MEK1CA/ERK2/MBP); format: biochemical; conditions: MEK1CA with ERK2, MBP and [γ33P]ATP; 30 min preincubation, 60 min reaction
T1 construct: GST; made in house; host or cells: Escherichia coli
T1 sequence (Q02750 whole entry S218D/S222D): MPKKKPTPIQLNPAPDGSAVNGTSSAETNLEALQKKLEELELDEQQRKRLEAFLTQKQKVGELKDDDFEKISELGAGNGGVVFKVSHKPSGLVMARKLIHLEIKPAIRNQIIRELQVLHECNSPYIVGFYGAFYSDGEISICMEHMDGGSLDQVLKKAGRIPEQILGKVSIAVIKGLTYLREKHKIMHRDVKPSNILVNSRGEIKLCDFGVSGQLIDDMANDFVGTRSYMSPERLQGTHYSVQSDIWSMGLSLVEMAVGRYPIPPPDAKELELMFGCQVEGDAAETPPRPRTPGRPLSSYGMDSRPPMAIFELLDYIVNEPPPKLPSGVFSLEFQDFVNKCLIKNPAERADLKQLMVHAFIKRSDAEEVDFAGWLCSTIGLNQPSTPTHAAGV
Excerpt: Materials and preparation of reagents: Human GST-MEK1 and the constitutively […] active allele GST-MEK1^CA (harboring the mutations Ser218Asp and Ser222Asp) can be subcloned into the yeast expression vector pGEM4Z (Promega, Madison, Wis.) from the wild type human MEK1 cDNA. GST-MEK1CA was expressed in Escherichia coli and can be partially purified using Glutathione Sepharose 4B affinity resin (Amersham Pharmacia Biotech, Piscataway, N.J.). The ERK2 allele can be subcloned from MAPK2/Erk2 cDNA (wild type) in […] pUSEamp (Upstate Biotechnology, Inc., Waltham, Mass.) into the vector pET21a (Novagen, Madison, Wis.) resulting in an N-terminal histidine-tagged mouse ERK2 allele. ERK2 can be expressed and purified to homogeneity [Zhang, 1993 #33]. Myelin basic protein (MBP) can be purchased from Gibco BRL (Rockville, Md.). EasyTides adenosine 5′-triphosphate (ATP) ([γ-33P]) (NEN Perkin Elmer, Wellesley, Mass.) is the source of radiolabel for all kinase reactions. Activated Raf-1 (truncated) and activated MAPKinase 2/ERK2 can be purchased from Upstate, Inc. (Lake Placid, N.Y.). 4-20% Criterion Precast gels can be purchased from Bio-Rad (Hercules, Calif.).
Determination of enzymatic activity: Compounds are diluted from dimethylsulfoxide (DMSO) stocks into 1×HMNDE (20 mM HEPES pH 7.2, 1 mM MgCl2, 100 mM NaCl, 1.25 mM DTT, 0.2 mM EDTA). A typical 25-microliter assay contained 0.002 nanomoles MEK1^CA, 0.02 nanomoles ERK2, 0.25 nanomoles MBP, 0.25 nanomoles unlabeled ATP, and 0.1 μCi [γ33P] ATP. The screening assay essentially comprises four additions. Five μl of diluted compound are dispensed to 96-well assay plates. Ten μl of 2.5× enzyme cocktail (MEK1^CA and ERK2 only) are then added to each well followed by a preincubation for 30 minutes at ambient temperature. Ten μl of 2.5× substrate cocktail (labeled and unlabeled ATP plus MBP) are then added, followed by incubation for 60 minutes at ambient temperature. Finally, 100 μl of 10% trichloroacetic acid (TCA) are added and incubated for 30 minutes at room temperature to halt the reaction and precipitate radiolabeled protein products. Reaction products are harvested on glass fiber 96 well filter plates prewetted with water and 1% pyrophosphate. The filter plate is then washed 5 times with water. Water is displaced by absolute ethanol and the plate is allowed to air dry for 30 minutes at room temperature. A back seal is applied manually and 40 μl of scintillation cocktail are dispensed to each well. A top seal is applied and the plate is counted in the TopCount for two seconds per well.

| SMILES | EC50 [1] | IC50 [2] |
| --- | --- | --- |
| O=S(=O)(Nc1cn2ccnc2c(Cl)c1Nc1ccc(I)cc1F)C1(CCO)CC1 [Example 12, N-(8-chloro-7-(2-fluoro-4-iodophenylamino)imidazo[1,2-a]pyridin-6-yl)-1-(2-hydroxyethyl)cyclopropane-1-sulfonamide] | 0.001 to 0.01 µM | 0.01 to 0.1 µM |
| Cc1noc2c(F)c(Nc3ccc(I)cc3F)c(NS(=O)(=O)C3CC3)cc12 [Example 3, N-(7-fluoro-6-(2-fluoro-4-iodophenylamino)-3-methylbenzo[d]isoxazol-5-yl)cyclopropanesulfonamide] | 0.001 to 0.01 µM | 0.01 to 0.1 µM |
| Cc1c(Nc2ccc(Br)cc2Cl)c(NS(=O)(=O)C2CC2)cn2ccnc12 [Example 17, N-(7-(4-bromo-2-chlorophenylamino)-8-methylimidazo[1,2-a]pyridin-6-yl)cyclopropanesulfonamide] | 0.01 to 0.1 µM | 0.1 to 1 µM |
| Cc1nn(C)c2c(F)c(Nc3ccc(I)cc3F)c(NS(=O)(=O)C3CC3)cc12 [Example 30, N-(6-(2-fluoro-4-iodophenylamino)-7-fluoro-1,3-dimethyl-1H-indazol-5-yl)cyclopropanesulfonamide] | 0.1 to 1 µM | 10 to 50 µM |
| Cc1noc2c(F)c(Nc3ccc(I)cc3F)c(NS(=O)(=O)C3(CC(O)CO)CC3)cc12 (centres unmarked) [Example 5, 1-(2,3-dihydroxypropyl)-N-(7-fluoro-6-(2-fluoro-4-iodophenylamino)-3-methylbenzo[d]isoxazol-5-yl)cyclopropane-1-sulfonamide] | 0.0001 to 0.001 µM | 0.001 to 0.01 µM |
| Cc1ncnc2c(F)c(Nc3ccc(I)cc3F)c(NS(=O)(=O)C3CC3)cc12 [Example 34, N-(7-(2-fluoro-4-iodophenylamino)-8-fluoro-4-methylquinazolin-6-yl)cyclopropanesulfonamide] | 0.1 to 1 µM | 10 to 50 µM |
| Cc1c2cc(NS(=O)(=O)C3CC3)c(Nc3ccc(I)cc3F)c(F)c2nn1C [Example 29, N-(6-(2-fluoro-4-iodophenylamino)-7-fluoro-2,3-dimethyl-2H-indazol-5-yl)cyclopropanesulfonamide] | 0.001 to 0.01 µM | 1 to 10 µM |
| Cc1c(Nc2ccc(I)cc2F)c(NS(=O)(=O)C2(CC(O)CO)CC2)cn2ccnc12 (centres unmarked) [Example 16, 1-(2,3-dihydroxypropyl)-N-(7-(2-fluoro-4-iodophenylamino)-8-methylimidazo[1,2-a]pyridin-6-yl)cyclopropane-1-sulfonamide] | 0.01 to 0.1 µM | 0.01 to 0.1 µM |
| Cc1c(Nc2ccc(I)cc2F)c(NS(=O)(=O)C2CC2)cn2ccnc12 [Example 14, N-(7-(2-fluoro-4-iodophenylamino)-8-methylimidazo[1,2-a]pyridin-6-yl)cyclopropanesulfonamide] | 0.0001 to 0.001 µM | 0.01 to 0.1 µM |
| O=S(=O)(Nc1cn2ccnc2c(Cl)c1Nc1ccc(Br)cc1Cl)C1CC1 [Example 9, N-(7-(4-bromo-2-chlorophenylamino)-8-chloroimidazo[1,2-a]pyridin-6-yl)cyclopropanesulfonamide] | 0.01 to 0.1 µM | 0.1 to 1 µM |
| Cc1noc2c(F)c(Nc3ccc(I)cc3F)c(NS(=O)(=O)C3(CCO)CC3)cc12 [Example 4, 1-(2-hydroxyethyl)-N-(7-fluoro-6-(2-fluoro-4-iodophenylamino)-3-methylbenzo[d]isoxazol-5-yl)cyclopropane-1-sulfonamide] | 0.001 to 0.01 µM | 0.01 to 0.1 µM |
| Cc1c(Nc2ccc(Br)cc2Cl)c(NS(=O)(=O)C2(CCO)CC2)cn2ccnc12 [Example 18, N-(7-(4-bromo-2-chlorophenylamino)-8-methylimidazo[1,2-a]pyridin-6-yl)-1-(2-hydroxyethyl)cyclopropane-1-sulfonamide] | 0.01 to 0.1 µM | 1 to 10 µM |
| O=S(=O)(Nc1cn2ccnc2c(Cl)c1Nc1ccc(Br)cc1Cl)C1(CCO)CC1 [Example 10, N-(7-(4-bromo-2-chlorophenylamino)-8-chloroimidazo[1,2-a]pyridin-6-yl)-1-(2-hydroxyethyl)cyclopropane-1-sulfonamide] | 0.01 to 0.1 µM | 0.1 to 1 µM |
| Cn1cnc2c(F)c(Nc3ccc(I)cc3F)c(NS(=O)(=O)C3(CCO)CC3)cc21 [Example 2, N-(4-fluoro-5-(2-fluoro-4-iodophenylamino)-1-methyl-1H-benzo[d]imidazol-6-yl)-1-(2-hydroxyethyl)cyclopropane-1-sulfonamide] | 0.001 to 0.01 µM | 0.01 to 0.1 µM |
| Cc1noc2c(F)c(Nc3ccc(Br)cc3Cl)c(NS(=O)(=O)C3CC3)cc12 [Example 6, N-(7-fluoro-6-(4-bromo-2-chlorophenylamino)-3-methylbenzo[d]isoxazol-5-yl)cyclopropanesulfonamide] | 0.001 to 0.01 µM | 0.1 to 1 µM |
| Cc1onc2c(F)c(Nc3ccc(I)cc3F)c(NS(=O)(=O)C3CC3)cc12 [Example 7, N-(7-fluoro-6-(2-fluoro-4-iodophenylamino)-3-methylbenzo[c]isoxazol-5-yl)cyclopropanesulfonamide] | 0.01 to 0.1 µM | 0.01 to 0.1 µM |
